One series concerns the target T1, PKCι (Homo sapiens, UniProt P41743).
T1 sequence (P41743 1-596): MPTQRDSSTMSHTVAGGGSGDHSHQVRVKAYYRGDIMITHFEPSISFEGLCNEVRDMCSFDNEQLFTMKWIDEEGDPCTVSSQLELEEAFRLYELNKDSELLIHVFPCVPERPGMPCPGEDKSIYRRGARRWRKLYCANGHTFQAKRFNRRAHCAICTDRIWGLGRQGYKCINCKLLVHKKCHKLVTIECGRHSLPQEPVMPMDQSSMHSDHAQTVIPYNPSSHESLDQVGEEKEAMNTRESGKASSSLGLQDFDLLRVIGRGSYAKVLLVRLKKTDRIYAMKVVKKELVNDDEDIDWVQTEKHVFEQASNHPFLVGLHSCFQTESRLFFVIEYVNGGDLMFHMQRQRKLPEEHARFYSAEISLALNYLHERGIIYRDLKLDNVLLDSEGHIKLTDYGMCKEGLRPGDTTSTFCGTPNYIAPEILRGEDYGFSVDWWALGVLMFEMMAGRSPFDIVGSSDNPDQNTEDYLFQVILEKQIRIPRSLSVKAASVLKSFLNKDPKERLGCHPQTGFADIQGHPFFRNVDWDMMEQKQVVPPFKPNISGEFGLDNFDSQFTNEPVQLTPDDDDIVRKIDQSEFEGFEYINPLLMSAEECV
As to the kind of experiment: Z'-Lyte recombinant enzyme assay, PKCι. The format is biochemical. The protocol:
(§1) Half maximal inhibitory concentrations of Cmpd 1 were determined by Z’-Lyte biochemical assays (Life Technologies SelectScreen™ Kinase Profiling Services, Thermo Fisher Scientific). Kinome selectivity was determined at 1 μM Cmpd 1 concentration against a panel of 119 kinases. The original kinome tree in Fig. 1b was taken from Ref.[68].

Series [1] is described as follows: 4-day pharmacokinetic study with chow dosing. The following applies: ZSF1 obese rats, chow dosing approx. 50 mpk/day, corrected for plasma protein binding. Type of series: in vivo, rat. Here is the method:
Three male 12-week old ZSF1 obese rats were fed control or 0.744 g/kg Cmpd 1 chow for 4 days. Food consumption was estimated by measuring food provided versus food remaining in the hopper. Blood was collected through tail vein from each animal at 9 a.m. and 4 p.m. 2 days after chow dosing started, and at 9 a.m. four days after chow dosing started, for PK determination. Plasma protein binding of Cmpd 1 was measured by equilibrium dialysis of the in vitro fraction unbound of Cmpd 1 at a concentration of […] in plasma from pooled male and female CD-1 mice. Plasma was centrifuged and supernatant was analyzed by liquid chromatography–tandem mass spectrometry to detect Cmpd 1 (York Bioanalytical Solutions; York, UK).

Another series concerns the target PKCα (Homo sapiens, UniProt P17252). As to the kind of experiment: Z'-Lyte recombinant enzyme assay, PKCα. The format is biochemical. The protocol:
as §1

The values that follow come from article PMC10560236, “A protein kinase C α and β inhibitor blunts hyperphagia to halt renal function decline and reduces adiposity in a rat model of obesity-driven type 2 diabetes” (Scientific Reports, 2023).

SMILES strings stand for the structures.

As to `Cc1ncc(F)c(Nc2n[nH]c3c2CN(C(=O)N2C[C@@H](C)N(CC4CCOCC4)C[C@@H]2C)C3(C)C)n1` [Cmpd 1, 5-[(2S,5R)-2,5-dimethyl-4-(tetrahydro-2H-pyran-4-ylmethyl)piperazin-l-yl]carbonyl-N-(5-fluoro-2-methylpyrimidin-4-yl)-6,6-dimethyl-1,4,5,6-tetrahydropyrrolo[3,4-c]pyrazol-3-amine], the IC50 on PKCι was > 10000 nM; on PKCα, 2 nM. In addition, in series [1] (4 p.m.), the “Free drug concentration in serum, evening” value is recorded as ~400 nM. Moreover, the “Free drug concentration in serum, morning” value in series [1] (9 a.m.) is reported as “roughly 700 nM”.

A word on the IC50: it is the concentration at which inhibition is half-maximal.
